# Biological target: T1, hGOAT (Homo sapiens, UniProt Q96T53)
# T1 construct: expressed in transfected cells; host or cells: HEK293 (Hek293 hGOAT/PPGhrl Clone #1B8)
# T1 sequence (Q96T53 1-435): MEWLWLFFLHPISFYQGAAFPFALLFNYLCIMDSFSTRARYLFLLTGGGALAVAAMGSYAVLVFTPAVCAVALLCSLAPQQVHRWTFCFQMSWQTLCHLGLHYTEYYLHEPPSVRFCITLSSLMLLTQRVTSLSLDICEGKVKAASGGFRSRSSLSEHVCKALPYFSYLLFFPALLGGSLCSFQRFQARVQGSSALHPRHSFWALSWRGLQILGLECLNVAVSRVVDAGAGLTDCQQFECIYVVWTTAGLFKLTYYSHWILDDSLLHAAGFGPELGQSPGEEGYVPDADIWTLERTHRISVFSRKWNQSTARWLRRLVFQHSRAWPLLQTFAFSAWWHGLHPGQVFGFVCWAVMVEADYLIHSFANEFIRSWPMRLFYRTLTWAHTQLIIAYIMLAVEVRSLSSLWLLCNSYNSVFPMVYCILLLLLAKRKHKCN
# Assay: Determination of hGOAT activity in HEK293 cells after incubation with test compound (acyl-ghrelin ELISA)
# Type: cell-based
# Settings: HEK293 cells stably transfected with preproghrelin and human GOAT; octanoate-BSA 100 μM; 5 hours incubation; acyl-ghrelin in medium by ELISA; 8 compound concentrations
# Method: Determination of hGOAT Activity in HEK293 Cells after Incubation with Test Compound
# HEK293 cells stably transfected with two expression vectors, one coding for preproghrelin cDNA and a second for the expression of human GOATcDNA are used as a cellular model. After feeding the cells with octanoic acid for 5 hours, acyl-ghrelin is measured in cell culture medium by an ELISA procedure.
# Cellline: Hek293 hGOAT/PPGhrl Clone #1B8Sodium octanoate, Sigma, Cat.-No. C5038
# BD Poly-D-Lysin 384-well Plates, black-clear polystyrene BD Bioscience Cat.-No. […] ELISA human acylated Ghrelin Kit purchased from Bertin Pharman (detailed composition of buffers e.g. wash-puffer, ELISA buffer not known)
# Cells are plated with a density of 5000 cells/well in 384-well poly-D-lysin plates and incubated for 1 day at 37° C., 5% CO2 in DMEM medium, 10% FCS, 1×NEAA, Puromycin (0.5 μg/ml) and G418 (1 mg/ml). Then the medium is changed to a identical medium without FCS and containing Octanoate-BSA (final concentration 100 μM each) and compound in DMSO (final DMSO concentration 0,3%). After incubation for 5 hours acylghrelin in the medium is measured by ELISA.
# The medium sample is diluted 1:25 in Elisa buffer, a 25 μl aliquot is transferred to a 384-well ELISA plate previously washed 4 times with 100 μL wash buffer, and 25 μl tracer-solution is added. After incubation overnight (˜20 h) at 4° C. temperature the plate is washed 4 times with 100 μl wash-buffer per well. Finally 50 μl Ellman's reagent is added to each well and the plate is incubated in the dark for 20 minutes. The absorbance is measured at 405 nm in an Envision multilabel reader and the amount of acylated ghrelin is calculated according to a acylated ghrelin standard curve provided in the same plate.
# The analysis of the data is performed by calculation of the percentage of acyl-ghrelin produced in the presence of test compound compared to the amount of acyl-ghrelin produced in the vehicle control samples. An inhibitor of the GOAT enzyme will give values between 100% CTL (no inhibition) and 0% CTL (complete inhibition).
# IC50 values are calculated with Assay Explorer or other suited software based on curve fitting of results of 8 different compound concentrations.
row,IC50 [nM],Structure (SMILES)
1,0.571,"Cc1nc2nonc2c(N)c1Cc1ccc(C(F)(F)F)n2cnnc12 [Compound 4.12, 5-Methyl-6-{[5-(trifluoromethyl)-[1,2,4]triazolo[4,3-a]pyridin-8-yl]methyl}-[1,2,5]oxadiazolo[3,4-b]pyridin-7-amine]"
2,0.89,"Cc1nc2nonc2c(N)c1Cc1cccn2c(C3CC3)nnc12 [Compound 4.13, 6-({3-Cyclopropyl-[1,2,4]triazolo[4,3-a]pyridin-8-yl}methyl)-5-methyl-[1,2,5]oxadiazolo[3,4-b]pyridin-7-amine]"
3,0.665,"Cc1nc2nonc2c(N)c1Cc1ccc(Cl)n2cnnc12 [Compound 4.14, 6-({5-Chloro-[1,2,4]triazolo[4,3-a]pyridin-8-yl}methyl)-5-methyl-[1,2,5]oxadiazolo[3,4-b]pyridin-7-amine]"
4,0.33,"Cc1nc2nonc2c(N)c1Cc1ccc(OC(F)F)n2cnnc12 [Compound 4.15, 6-{[5-(Difluoromethoxy)-[1,2,4]triazolo[4,3-a]pyridin-8-yl]methyl}-5-methyl-[1,2,5]oxadiazolo[3,4-b]pyridin-7-amine]"
5,0.642,"Cc1nc2nonc2c(N)c1Cc1ccc(OC(F)F)nc1 [Compound 4.16, 6-{[6-(Difluoromethoxy)pyridin-3-yl]methyl}-5-methyl-[1,2,5]oxadiazolo[3,4-b]pyridin-7-amine]"
6,1.65,"Cc1nc2nonc2c(N)c1Cc1ccc(Cl)nc1 [Compound 4.18, 6-[(6-Chloropyridin-3-yl)methyl]-5-methyl-[1,2,5]oxadiazolo[3,4-b]pyridin-7-amine]"
7,0.174,"CSc1ccc(Cc2c(C)nc3nonc3c2N)cc1 [Compound 4.19, 5-Methyl-6-{[4-(methylsulfanyl)phenyl]methyl}-[1,2,5]oxadiazolo[3,4-b]pyridin-7-amine]"
8,5.51,"Cc1nc2nonc2c(N)c1Cc1ccc2nccn2c1 [Compound 4.20, 6-Imidazo[1,2-a]pyridin-6-ylmethyl-5-methyl-[1,2,5]oxadiazolo[3,4-b]pyridin-7-ylamine]"
9,3.41,"Cc1nc2nonc2c(N)c1Cc1ccn2ncnc2c1 [Compound 4.21, 5-Methyl-6-({[1,2,4]triazolo[1,5-a]pyridin-7-yl}methyl)-[1,2,5]oxadiazolo[3,4-b]pyridin-7-amine]"
10,4.81,"Cc1ncc(-c2ccc(Cc3c(C)nc4nonc4c3N)cn2)o1 [Compound 4.22, 5-Methyl-6-{[6-(2-methyl-1,3-oxazol-5-yl)pyridin-3-yl]methyl}-[1,2,5]oxadiazolo[3,4-b]pyridin-7-amine]"
11,7.76,"COC(=O)c1cn2cc(Cc3c(C)nc4nonc4c3N)ccc2n1 [Compound 4.23, Methyl 6-({7-amino-5-methyl-[1,2,5]oxadiazolo[3,4-b]pyridin-6-yl}methyl)imidazo[1,2-a]pyridine-2-carboxylate]"
12,0.838,"Cc1nc2nonc2c(N)c1Cc1ccc(C(C)(C)C#N)nc1 [Compound 4.24, 2-[5-({7-Amino-5-methyl-[1,2,5]oxadiazolo[3,4-b]pyridin-6-yl}methyl)pyridin-2-yl]-2-methylpropanenitrile]"
13,0.081,"CCC(C#N)(CC)c1ccc(Cc2c(C)nc3nonc3c2N)cn1 [Compound 4.25, 2-[5-({7-Amino-5-methyl-[1,2,5]oxadiazolo[3,4-b]pyridin-6-yl}methyl)pyridin-2-yl]-2-ethylbutanenitrile]"
14,0.098,"Cc1nc2nonc2c(N)c1Cc1ccc(C2(C#N)CCCC2)nc1 [Compound 4.26, 1-[5-({7-Amino-5-methyl-[1,2,5]oxadiazolo[3,4-b]pyridin-6-yl}methyl)pyridin-2-yl]cyclopentane-1-carbonitrile]"
15,1.65,"Cc1nc2nonc2c(N)c1Cc1ccc(C2(C#N)CCOCC2)nc1 [Compound 4.27, 4-[5-({7-Amino-5-methyl-[1,2,5]oxadiazolo[3,4-b]pyridin-6-yl}methyl)pyridin-2-yl]oxane-4-carbonitrile]"
16,1.5,"Cc1nc2nonc2c(N)c1Cc1ccc(C2(C#N)CC(F)(F)C2)nc1 [Compound 4.28, 1-[5-({7-Amino-5-methyl-[1,2,5]oxadiazolo[3,4-b]Pyridin-6-yl}methyl)pyridin-2-yl]-3,3-difluorocyclobutane-1-carbonitrile]"
17,1.27,"Cc1nc2nonc2c(N)c1Cc1ccc(Br)nc1 [Compound 4.29, 6-[(6-Bromopyridin-3-yl)methyl]-5-methyl-[1,2,5]oxadiazolo[3,4-b]pyridin-7-amine]"
18,1.39,"Cc1nc2nonc2c(N)c1Cc1ccc(C(F)F)nc1 [Compound 4.30, 6-{[6-(Difluoromethyl)pyridin-3-yl]methyl}-5-methyl-[1,2,5]oxadiazolo[3,4-b]pyridin-7-amine]"
19,0.487,"Cc1nc2nonc2c(N)c1Cc1ccc(C#N)c(F)c1 [Compound 4.31, 4-({7-Amino-5-methyl-[1,2,5]oxadiazolo[3,4-b]pyridin-6-yl}methyl)-2-fluorobenzonitrile]"
20,0.064,"Cc1nc2nonc2c(N)c1Cc1ccc(SC(F)(F)F)cc1 [Compound 4.32, 5-Methyl-6-({4-[(trifluoromethyl)sulfanyl]phenyl}methyl)-[1,2,5]oxadiazolo[3,4-b]pyridin-7-amine]"
21,0.114,"Cc1nc2nonc2c(N)c1Cc1ccc(OC(F)F)cc1 [Compound 4.33, 6-{[4-(Difluoromethoxy)phenyl]methyl}-5-methyl-[1,2,5]oxadiazolo[3,4-b]pyridin-7-amine]"
22,1.4,"Cc1nc2nonc2c(N)c1Cc1ccc2nn(C)cc2c1 [Compound 4.34, 5-Methyl-6-[(2-methyl-2H-indazol-5-yl)methyl]-[1,2,5]oxadiazolo[3,4-b]pyridin-7-amine]"
23,0.111,"Cc1nc2nonc2c(N)c1Cc1ccc(C#N)c(OC(F)F)c1 [Compound 4.35, 4-({7-Amino-5-methyl-[1,2,5]oxadiazolo[3,4-b]pyridin-6-yl}methyl)-2-(difluoromethoxy)benzonitrile]"
24,5.8,"Cc1nc2nonc2c(N)c1Cc1cccc(C#N)c1 [Compound 4.36, 3-(7-Amino-5-methyl-[1,2,5]oxadiazolo[3,4-b]pyridin-6-ylmethyl)-benzonitrile]"
25,0.534,"Cc1nc2nonc2c(N)c1Cc1cc(I)ncc1C(F)(F)F [Compound 4.37, 6-{[2-Iodo-5-(trifluoromethyl)pyridin-4-yl]methyl}-5-methyl-[1,2,5]oxadiazolo[3,4-b]pyridin-7-amine]"
26,0.268,"Cc1nc2nonc2c(N)c1Cc1cccc(C(F)(F)F)c1 [Compound 4.38, 5-Methyl-6-{[3-(trifluoromethyl)phenyl]methyl}-[1,2,5]oxadiazolo[3,4-b]pyridin-7-amine]"
27,9.39,"Cc1nc2nonc2c(N)c1Cc1ccnc(C#N)c1 [Compound 4.39, 4-({7-Amino-5-methyl-[1,2,5]oxadiazolo[3,4-b]pyridin-6-yl}methyl)pyridine-2-carbonitrile]"
28,2.21,"Cc1nc2nonc2c(N)c1Cc1ccnc(C(F)(F)F)c1 [Compound 4.40, 5-Methyl-6-{[2-(trifluoromethyl)pyridin-4-yl]methyl}-[1,2,5]oxadiazolo[3,4-b]pyridin-7-amine]"
29,0.428,"Cc1nc2nonc2c(N)c1Cc1cccc(OC(F)(F)F)c1 [Compound 4.41, 5-Methyl-6-{[3-(trifluoromethoxy)phenyl]methyl}-[1,2,5]oxadiazolo[3,4-b]pyridin-7-amine]"
30,0.377,"Cc1nc2nonc2c(N)c1Cc1cccc(S(=O)(=O)C(F)(F)F)c1 [Compound 4.42, 5-Methyl-6-[(3-trifluoromethanesulfonylphenyl)methyl]-[1,2,5]oxadiazolo[3,4-b]pyridin-7-amine]"

row,Structure (SMILES),IC50 [nM]
1,"Cc1nc2nonc2c(N)c1Cc1ccc(OC2CCC2)nc1 [Compound 4.17, 6-[(6-Cyclobutoxypyridin-3-yl)methyl]-5-methyl-[1,2,5]oxadiazolo[3,4-b]pyridin-7-amine]",0.371
